The text below walks through data of patent publication US11986471B2, “Compounds and methods of use” (Tango Therapeutics, Inc., priority 2018, dated 2024).

For assay [1], the target named is T1, PRMT5 (Homo sapiens, UniProt O14744).
T1 construct: purchased Viva (custom protein)
As to the kind of experiment: PRMT5 IC50 assay in the presence of MTA as cofactor. In kind it is biochemical. The note with it: for IC50: PRMT5, MTA as cofactor. The method in brief: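 For the SAM-containing format, dividing IC50 by 1.5 yields Ki; for the MTA-containing format the divisor is 13.5. A third format without cofactor gives IC50 alone.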

In assay [2] the target is T1, PRMT5. As to the kind of experiment: PRMT5 IC50 assay with no cofactor. The format is biochemical. The gist of the method:
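Potency against PRMT5 is compared across cofactor states, where IC50 equals Ki×1.5 with SAM present and Ki×13.5 with MTA present.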

In the next assay the test system is HAP1 MTAP-deleted. Put plainly: SDMA in-cell western assay, HAP1 MTAP-deleted cell line. The format is cell-based. The note with it: for IC50: Homo sapiens, HAP1 MTAP-deleted cell line; for MTAP Intact/Deleted Ratio: IC50 ratio HAP1 MTAP-intact / HAP1 MTAP-deleted. The gist of the method: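 Readout is cellular SDMA signal by in-cell western, with IC50 values derived from it. The cells are MTAP-null HAP1, matched to an isogenic MTAP-intact HAP1 line.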

Assay [3] addresses T1, PRMT5. As to the kind of experiment: PRMT5 IC50 assay in the presence of SAM as cofactor. In kind it is biochemical. The gist of the method: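 Three cofactor conditions are run: SAM-bound, MTA-bound and cofactor-free enzyme. IC50 is read from each; for the SAM and MTA arms it is divided by 1.5 and 13.5 respectively to give Ki.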
A further assay concerns HAP1 MTAP-intact. As to the kind of experiment: SDMA in-cell western assay, HAP1 MTAP-intact cell line. In kind it is cell-based. The note with it: Homo sapiens. The gist of the method: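 IC50 values come from SDMA in-cell western staining of HAP1 cells. The MTAP-intact line carries endogenous MTAP, while its MTAP-deleted counterpart lacks MTAP entirely. A selectivity ratio of at least 3 fold marks a compound as MTAP-selective.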

Setting [4] is: ratio between the Ki in the presence of SAM and the Ki in the presence of MTA.
Where [5] appears, read: ratio between Ki in the presence of SAM and Ki in the presence of MTA.

Where only a bound is given, the exact number is not on record here.

T1 sequence (O14744 whole entry): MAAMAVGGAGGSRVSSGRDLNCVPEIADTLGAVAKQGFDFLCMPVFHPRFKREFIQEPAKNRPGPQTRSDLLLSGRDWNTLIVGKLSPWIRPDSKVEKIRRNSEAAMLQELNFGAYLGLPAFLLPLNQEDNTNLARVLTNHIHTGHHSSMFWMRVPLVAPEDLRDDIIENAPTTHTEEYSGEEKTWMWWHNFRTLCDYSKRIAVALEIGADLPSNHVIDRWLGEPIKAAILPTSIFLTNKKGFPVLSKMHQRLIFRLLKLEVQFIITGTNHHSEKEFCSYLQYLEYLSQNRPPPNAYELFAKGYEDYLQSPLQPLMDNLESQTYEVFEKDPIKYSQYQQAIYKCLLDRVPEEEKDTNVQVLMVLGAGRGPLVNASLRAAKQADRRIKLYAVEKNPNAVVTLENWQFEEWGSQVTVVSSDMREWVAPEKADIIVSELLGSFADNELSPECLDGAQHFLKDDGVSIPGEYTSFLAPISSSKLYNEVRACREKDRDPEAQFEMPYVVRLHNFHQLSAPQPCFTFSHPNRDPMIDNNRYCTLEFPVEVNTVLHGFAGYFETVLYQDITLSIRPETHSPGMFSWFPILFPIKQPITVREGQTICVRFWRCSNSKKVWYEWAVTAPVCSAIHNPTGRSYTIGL
T1 sequence (Q9BQA1 whole entry partner): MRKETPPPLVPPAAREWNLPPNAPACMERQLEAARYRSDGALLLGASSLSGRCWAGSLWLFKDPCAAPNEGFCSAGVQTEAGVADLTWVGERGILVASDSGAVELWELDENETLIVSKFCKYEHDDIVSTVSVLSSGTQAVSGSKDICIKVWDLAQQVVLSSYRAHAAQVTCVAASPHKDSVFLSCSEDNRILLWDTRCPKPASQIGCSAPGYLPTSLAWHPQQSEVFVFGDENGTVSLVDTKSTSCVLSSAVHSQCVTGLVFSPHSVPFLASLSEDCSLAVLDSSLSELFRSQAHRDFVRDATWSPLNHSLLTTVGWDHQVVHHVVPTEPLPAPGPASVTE

In the case of `Cc1c(OCc2cnco2)ccc2c1CCN(C[C@@H](O)CNC(=O)c1ccnc(NC3CCC3C3CCC3)c1)C2` (stereo partly drawn) [Compound 476, 2-([1,1′-bi(cyclobutan)]-2-ylamino)-N—((S)-2-hydroxy-3-(5-methyl-6-(oxazol-5-ylmethoxy)-3,4-dihydroisoquinolin-2(1H)-yl)propyl)isonicotinamide], the 50% inhibitory concentration (IC50) – broadly, the midpoint of a concentration-inhibition curve – at PRMT5 [1] was 50 to 500 nM; against PRMT5 [2] it was at least 5000 nM; in the assay with HAP1 MTAP-deleted, at least 10000 nM; at PRMT5 [3], 500 to 5000 nM; in the assay with HAP1 MTAP-intact it was at least 10000 nM. The “SAM/MTA Ratio” value on PRMT5 [1] (setting [4]) is “A (a Ki ratio greater than or equal to 10 fold between the Ki in the presence of SAM and the Ki in the presence of MTA)”. Besides, in the assay with HAP1 MTAP-deleted, the “MTAP Intact/Deleted Ratio” value is “C* (an IC50 ratio of less than 3 fold between the IC50 in the HAP1 MTAP-intact cell line and the HAP1 MTAP-deleted cell line)”.
Regarding `CC(=O)N1CCC(Nc2cc(C(=O)NC[C@H](O)CN3CCc4cc(OCc5ocnc5C)c(F)cc4C3)cc(N3CCCCC3)n2)CC1` [Compound 623], the IC50 at PRMT5 [1] was 50 to 500 nM; at PRMT5 [2], 50 to 500 nM; with HAP1 MTAP-deleted it was below 1000 nM; at PRMT5 [3] it was 50 to 500 nM; in the assay on HAP1 MTAP-intact it was 1000 to 10000 nM. Also, on PRMT5 [1] (setting [4]), the “SAM/MTA Ratio” value is “A (a Ki ratio greater than or equal to 10 fold between the Ki in the presence of SAM and the Ki in the presence of MTA)”. Moreover, the “MTAP Intact/Deleted Ratio” value in the assay with HAP1 MTAP-deleted is “A* (an IC50 ratio greater than or equal to 10 fold between the IC50 in the HAP1 MTAP-intact cell line and the HAP1 MTAP-deleted cell line)”.
As to `CCC(=O)N1CC(Nc2cc(C(=O)NC[C@H](O)CN3CCc4cc(OCc5cnco5)ccc4C3)ccn2)C1` [Compound 469, N-[(2S)-2-hydroxy-3-[6-(oxazol-5-ylmethoxy)-3,4-dihydro-1H-isoquinolin-2-yl]propyl]-2-[(1-propanoylazetidin-3-yl)amino]pyridine-4-carboxamide], the IC50 on PRMT5 [1] lay within 50 to 500 nM; on PRMT5 [2], 500 to 5000 nM; with HAP1 MTAP-deleted, 1000 to 10000 nM; at PRMT5 [3], 50 to 500 nM; with HAP1 MTAP-intact, 1000 to 10000 nM. The “SAM/MTA Ratio” value on PRMT5 [1] (setting [4]) was “A (a Ki ratio greater than or equal to 10 fold between the Ki in the presence of SAM and the Ki in the presence of MTA)”. Also, the “MTAP Intact/Deleted Ratio” value with HAP1 MTAP-deleted was “C* (an IC50 ratio of less than 3 fold between the IC50 in the HAP1 MTAP-intact cell line and the HAP1 MTAP-deleted cell line)”.
As for `CC(=O)N1[C@@H]2CC[C@H]1C[C@H](Nc1cc(C(=O)NC[C@H](O)CN3CCc4cc(OCc5ocnc5C)ccc4C3)ccn1)C2` [Compound 645, 2-(((1R,3r,5S)-8-acetyl-8-azabicyclo[3.2.1]octan-3-yl)amino)-N—((S)-2-hydroxy-3-(6-((4-methyloxazol-5-yl)methoxy)-3,4-dihydroisoquinolin-2(1H)-yl)propyl)isonicotinamide], the IC50 at PRMT5 [1] was 50 to 500 nM; on PRMT5 [2] (read-out: No Co-factor IC50) it was 500 to 5000 nM; in the assay on HAP1 MTAP-deleted, below 1000 nM; on PRMT5 [3], 50 to 500 nM; in the assay with HAP1 MTAP-intact it was at least 10000 nM. Besides, the “SAM/MTA Ratio” value on PRMT5 [1] (setting [5]) was “A (a Ki ratio greater than or equal to 10 fold between the Ki in the presence of SAM and the Ki in the presence of MTA)”. Moreover, the “MTAP Intact/Deleted Ratio” value in the assay with HAP1 MTAP-deleted is “A* (an IC50 ratio greater than or equal to 10 fold between the IC50 in the HAP1 MTAP-intact cell line and the HAP1 MTAP-deleted cell line)”.
Take `CC(=O)N1CCC(Nc2cc(C(=O)NC[C@H](O)CN3CCc4cc(OCc5ocnc5C)ccc4C3)ccn2)CC1` [Compound 622, (S)-2-((1-acetylpiperidin-4-yl)amino)-N-(2-hydroxy-3-(6-((4-methyloxazol-5-yl)methoxy)-3,4-dihydroisoquinolin-2(1H)-yl)propyl)isonicotinamide]: the IC50 on PRMT5 [1] is below 50 nM; at PRMT5 [2] it was 500 to 5000 nM; in the assay with HAP1 MTAP-deleted, below 1000 nM; at PRMT5 [3], 50 to 500 nM; in the assay on HAP1 MTAP-intact, at least 10000 nM. Moreover, the “SAM/MTA Ratio” value on PRMT5 [1] (setting [4]) is “A (a Ki ratio greater than or equal to 10 fold between the Ki in the presence of SAM and the Ki in the presence of MTA)”. Also, the “MTAP Intact/Deleted Ratio” value with HAP1 MTAP-deleted is “A* (an IC50 ratio greater than or equal to 10 fold between the IC50 in the HAP1 MTAP-intact cell line and the HAP1 MTAP-deleted cell line)”.
For the compound `O=C(NC[C@H](O)CN1CCc2cc(OCc3cnco3)ccc2C1)c1cc(NC2CCC2)nc(N2CCN(C(=O)C3CC3)CC2)c1` [Compound 378, (S)-2-(cyclobutylamino)-6-(4-(cyclopropanecarbonyl)piperazin-1-yl)-N-(2-hydroxy-3-(6-(oxazol-5-ylmethoxy)-3N-dihydroisoquinolin-2(1H)-yl)propyl)isonicotinamide], the half-inhibitory concentration (IC50) at PRMT5 [1] was 50 to 500 nM; at PRMT5 [2] (read-out: No Co-factor IC50) it was 500 to 5000 nM; in the assay on HAP1 MTAP-deleted, below 1000 nM; on PRMT5 [3], 50 to 500 nM; in the assay on HAP1 MTAP-intact, below 1000 nM. Moreover, on PRMT5 [1] (setting [5]), the “SAM/MTA Ratio” value was “A (a Ki ratio greater than or equal to 10 fold between the Ki in the presence of SAM and the Ki in the presence of MTA)”. In addition, the “MTAP Intact/Deleted Ratio” value in the assay with HAP1 MTAP-deleted was “C* (an IC50 ratio of less than 3 fold between the IC50 in the HAP1 MTAP-intact cell line and the HAP1 MTAP-deleted cell line)”.
On to `Cc1ncoc1COc1ccc2c(n1)CCN(C[C@@H](O)CNC(=O)c1ccnc(NC3CCC3)c1)C2` [Compound 467, 2-(cyclobutylamino)-N-[(2S)-2-hydroxy-3-[2-[(4-methyloxazol-5-yl)methoxy]-7,8-dihydro-5H-1,6-naphthyridin-6-yl]propyl]pyridine-4-carboxamide], for which the 50% inhibitory concentration (IC50) at PRMT5 [1] was 50 to 500 nM; at PRMT5 [2], at least 5000 nM; in the assay with HAP1 MTAP-deleted it was 1000 to 10000 nM; on PRMT5 [3], 50 to 500 nM; with HAP1 MTAP-intact, at least 10000 nM. Further, the “SAM/MTA Ratio” value at PRMT5 [1] (setting [4]) is “A (a Ki ratio greater than or equal to 10 fold between the Ki in the presence of SAM and the Ki in the presence of MTA)”. Besides, in the assay with HAP1 MTAP-deleted, the “MTAP Intact/Deleted Ratio” value was “C* (an IC50 ratio of less than 3 fold between the IC50 in the HAP1 MTAP-intact cell line and the HAP1 MTAP-deleted cell line)”.
With `Cc1ncoc1COc1ccc2c(c1)CCN(C[C@@H](O)CNC(=O)c1cc(NC3CCC3)nc(N3CCN(C(C)(C)C)CC3)c1)C2` [Compound 403, 2-(4-tert-butylpiperazin-1-yl)-6-(cyclobutylamino)-N-[(2S)-2-hydroxy-3-{6-[(4-methyl-1,3-oxazol-5-yl)methoxy]-1,2,3,4-tetrahydroisoquinolin-2-yl}propyl]pyridine-4-carboxamide], the half-inhibitory concentration (IC50) at PRMT5 [1] is 50 to 500 nM; at PRMT5 [2] (read-out: No Co-factor IC50) it was 500 to 5000 nM; in the assay with HAP1 MTAP-deleted, at least 10000 nM; on PRMT5 [3] it was 50 to 500 nM; in the assay on HAP1 MTAP-intact it was below 1000 nM. In addition, on PRMT5 [1] (setting [5]), the “SAM/MTA Ratio” value was “A (a Ki ratio greater than or equal to 10 fold between the Ki in the presence of SAM and the Ki in the presence of MTA)”. Moreover, in the assay with HAP1 MTAP-deleted, the “MTAP Intact/Deleted Ratio” value is “C* (an IC50 ratio of less than 3 fold between the IC50 in the HAP1 MTAP-intact cell line and the HAP1 MTAP-deleted cell line)”.
For `COc1ccc(C(=O)N2CCc3cc(C(=O)NC[C@H](O)CN4CCc5cc(OCc6ocnc6C)c(F)cc5C4)ccc3C2)cc1` [Compound 577, N-[(2S)-3-[7-fluoro-6-[(4-methyloxazol-5-yl)methoxy]-3N-dihydro-1H-isoquinolin-2-yl]-2-hydroxy-propyl]-2-(4-methoxybenzoyl)-3N-dihydro-1H-isoquinoline-6-carboxamide], the 50% inhibitory concentration (IC50) on PRMT5 [1] was in the range of 50 to 500 nM; against PRMT5 [2], 500 to 5000 nM; with HAP1 MTAP-deleted, 1000 to 10000 nM; at PRMT5 [3], 50 to 500 nM; in the assay with HAP1 MTAP-intact, 1000 to 10000 nM. In addition, at PRMT5 [1] (setting [4]), the “SAM/MTA Ratio” value was “A (a Ki ratio greater than or equal to 10 fold between the Ki in the presence of SAM and the Ki in the presence of MTA)”. For the same compound, in the assay with HAP1 MTAP-deleted, the “MTAP Intact/Deleted Ratio” value was “B* (an IC50 ratio greater than or equal to 3 fold but lower than 10 fold between the IC50 in the HAP1 MTAP-intact cell line and the HAP1 MTAP-deleted cell line)”.
Regarding `O=C(NC[C@H](O)CN1CCc2c(ccc(OCc3cnco3)c2Br)C1)c1cc(NC2CCCC2)ncn1` [Compound 337], the IC50 on PRMT5 [1] is 500 to 5000 nM; on PRMT5 [2] (read-out: No Co-factor IC50), at least 5000 nM; with HAP1 MTAP-deleted, at least 10000 nM; at PRMT5 [3], 500 to 5000 nM; with HAP1 MTAP-intact, at least 10000 nM. Also, the “SAM/MTA Ratio” value on PRMT5 [1] (setting [5]) was “A (a Ki ratio greater than or equal to 10 fold between the Ki in the presence of SAM and the Ki in the presence of MTA)”. In the assay with HAP1 MTAP-deleted, the “MTAP Intact/Deleted Ratio” value is “C* (an IC50 ratio of less than 3 fold between the IC50 in the HAP1 MTAP-intact cell line and the HAP1 MTAP-deleted cell line)”.
For `Cc1c(OCc2cnco2)ccc2c1CCN(C[C@@H](O)CNC(=O)c1ccnc(NC3CC4(CC4)C3)c1)C2` [Compound 472], the half-inhibitory concentration (IC50) on PRMT5 [1] is 50 to 500 nM; against PRMT5 [2], 500 to 5000 nM; with HAP1 MTAP-deleted, 1000 to 10000 nM; at PRMT5 [3], 50 to 500 nM; in the assay with HAP1 MTAP-intact, at least 10000 nM. Moreover, the “SAM/MTA Ratio” value at PRMT5 [1] (setting [4]) was “A (a Ki ratio greater than or equal to 10 fold between the Ki in the presence of SAM and the Ki in the presence of MTA)”. For the same compound, the “MTAP Intact/Deleted Ratio” value in the assay with HAP1 MTAP-deleted was “B* (an IC50 ratio greater than or equal to 3 fold but lower than 10 fold between the IC50 in the HAP1 MTAP-intact cell line and the HAP1 MTAP-deleted cell line)”.
